Measurements from patent publication US20230399311A1, “POLYMORPHS OF SUBSTITUTED ISOQUINOLINE-BASED RHO KINASE INHIBITORS” (BioAxone BioSciences, Inc., priority 2022, published 2023).
In brackets after ≈: the same amount, converted by molar mass. Several values for one entry are separate records, joined by “and”; a condition that tells them apart may be missing. Equal values may be shown once. Read-outs that look alike come from different tables or passages of the source. Values belong to the molecule of their own block, whether it stands above or below them.

How the values were obtained:
[1] = Solubility of Form A in various solvents at 25° C. and 50° C.; type: physicochemical; settings: thermodynamic from solid
Experimental: The solubility of Form A of Compound 1 was evaluated at 25° C. and 50° C. in various solvents.

[2] = pKa by iterative titration with 1M sodium hydroxide; type: physicochemical; settings: free base form; for pKa: Measurements #1-#3
Experimental: The pKa of NRL-1049 in free base form was measured in triplicate by iterative titration with 1M sodium hydroxide solution. A plot of the pH versus the volume of the titrant was used to calculate the pKa, wherein the pKa was taken as 50% of the inflection point.

solubility ([1]; 1,4-dioxane, 25 °C, organic solvent or mixture, read-out: Solubility at 25° C.): 1500 µg/mL (≈ 4.7 mM)
solubility ([1]; 1,4-dioxane, 50 °C, organic solvent or mixture, read-out: Solubility at 50° C.): 11900 µg/mL (≈ 37.3 mM)
solubility ([1]; 2-methoxyethanol, 25 °C, organic solvent or mixture, read-out: Solubility at 25° C.): > 50000 µg/mL
solubility ([1]; 2-methoxyethanol, 50 °C, organic solvent or mixture, read-out: Solubility at 50° C.): > 50000 µg/mL
solubility ([1]; acetone, 25 °C, organic solvent or mixture, read-out: Solubility at 25° C.): 15900 µg/mL (≈ 49.8 mM)
solubility ([1]; acetone, 50 °C, organic solvent or mixture, read-out: Solubility at 50° C.): 45300 µg/mL (≈ 142 mM)
solubility ([1]; acetonitrile, 25 °C, organic solvent or mixture, read-out: Solubility at 25° C.): < 1000 µg/mL
solubility ([1]; acetonitrile, 50 °C, organic solvent or mixture, read-out: Solubility at 50° C.): < 1000 µg/mL
solubility ([1]; benzyl alcohol, 25 °C, organic solvent or mixture, read-out: Solubility at 25° C.): 156000 µg/mL (≈ 488 mM)
solubility ([1]; chloroform, 25 °C, organic solvent or mixture, read-out: Solubility at 25° C.): > 50000 µg/mL
solubility ([1]; chloroform, 50 °C, organic solvent or mixture, read-out: Solubility at 50° C.): > 50000 µg/mL
solubility ([1]; dichloromethane, 25 °C, organic solvent or mixture, read-out: Solubility at 25° C.): < 1000 µg/mL
solubility ([1]; dichloromethane, 50 °C, organic solvent or mixture, read-out: Solubility at 50° C.): < 1000 µg/mL
solubility ([1]; dimethyl sulfoxide, 25 °C, organic solvent or mixture, read-out: Solubility at 25° C.): > 50000 µg/mL
solubility ([1]; dimethyl sulfoxide, 50 °C, organic solvent or mixture, read-out: Solubility at 50° C.): > 50000 µg/mL
solubility ([1]; dimethylformamide, 25 °C, organic solvent or mixture, read-out: Solubility at 25° C.): 39300 µg/mL (≈ 123 mM)
solubility ([1]; dimethylformamide, 50 °C, organic solvent or mixture, read-out: Solubility at 50° C.): > 50000 µg/mL
solubility ([1]; ethanol, 25 °C, organic solvent or mixture, read-out: Solubility at 25° C.): 12300 µg/mL (≈ 38.5 mM)
solubility ([1]; ethanol, 50 °C, organic solvent or mixture, read-out: Solubility at 50° C.): 25300 µg/mL (≈ 79.2 mM)
solubility ([1]; ethyl acetate, 25 °C, organic solvent or mixture, read-out: Solubility at 25° C.): < 1000 µg/mL
solubility ([1]; ethyl acetate, 50 °C, organic solvent or mixture, read-out: Solubility at 50° C.): < 1000 µg/mL
solubility ([1]; ethyl formate, 25 °C, organic solvent or mixture, read-out: Solubility at 25° C.): 13700 µg/mL (≈ 42.9 mM)
solubility ([1]; ethyl formate, 50 °C, organic solvent or mixture, read-out: Solubility at 50° C.): > 50000 µg/mL
solubility ([1]; iso-butyl acetate, 25 °C, organic solvent or mixture, read-out: Solubility at 25° C.): < 1000 µg/mL
solubility ([1]; iso-butyl acetate, 50 °C, organic solvent or mixture, read-out: Solubility at 50° C.): < 1000 µg/mL
solubility ([1]; iso-propanol, 25 °C, organic solvent or mixture, read-out: Solubility at 25° C.): 500 µg/mL (≈ 1.57 mM)
solubility ([1]; iso-propanol, 50 °C, organic solvent or mixture, read-out: Solubility at 50° C.): 14700 µg/mL (≈ 46 mM)
solubility ([1]; iso-propyl acetate, 25 °C, organic solvent or mixture, read-out: Solubility at 25° C.): < 1000 µg/mL
solubility ([1]; iso-propyl acetate, 50 °C, organic solvent or mixture, read-out: Solubility at 50° C.): < 1000 µg/mL
solubility ([1]; medium chain triglyceride, 25 °C, oil or lipid, read-out: Solubility at 25° C.): 100 µg/mL (≈ 0.313 mM)
solubility ([1]; methanol, 25 °C, organic solvent or mixture, read-out: Solubility at 25° C.): > 50000 µg/mL
solubility ([1]; methanol, 50 °C, organic solvent or mixture, read-out: Solubility at 50° C.): > 50000 µg/mL
solubility ([1]; methyl ethyl ketone, 25 °C, organic solvent or mixture, read-out: Solubility at 25° C.): < 1000 µg/mL
solubility ([1]; methyl ethyl ketone, 50 °C, organic solvent or mixture, read-out: Solubility at 50° C.): 1500 µg/mL (≈ 4.7 mM)
solubility ([1]; methyl iso-butyl ketone, 25 °C, organic solvent or mixture, read-out: Solubility at 25° C.): < 1000 µg/mL
solubility ([1]; methyl iso-butyl ketone, 50 °C, organic solvent or mixture, read-out: Solubility at 50° C.): < 1000 µg/mL
solubility ([1]; n-butyl alcohol, 25 °C, organic solvent or mixture, read-out: Solubility at 25° C.): 1600 µg/mL (≈ 5.01 mM)
solubility ([1]; n-butyl alcohol, 50 °C, organic solvent or mixture, read-out: Solubility at 50° C.): 7500 µg/mL (≈ 23.5 mM)
solubility ([1]; n-propanol, 25 °C, organic solvent or mixture, read-out: Solubility at 25° C.): 1600 µg/mL (≈ 5.01 mM)
solubility ([1]; n-propanol, 50 °C, organic solvent or mixture, read-out: Solubility at 50° C.): 23400 µg/mL (≈ 73.3 mM)
solubility ([1]; o-xylene, 25 °C, organic solvent or mixture, read-out: Solubility at 25° C.): < 1000 µg/mL
solubility ([1]; o-xylene, 50 °C, organic solvent or mixture, read-out: Solubility at 50° C.): < 1000 µg/mL
solubility ([1]; polyethylene glycol 300, 25 °C, organic solvent or mixture, read-out: Solubility at 25° C.): 11000 µg/mL (≈ 34.4 mM)
solubility ([1]; propylene glycol, 25 °C, organic solvent or mixture, read-out: Solubility at 25° C.): 84000 µg/mL (≈ 263 mM)
solubility ([1]; sesame oil, 25 °C, oil or lipid, read-out: Solubility at 25° C.): 40 µg/mL (≈ 0.125 mM)
solubility ([1]; tert-butyl methyl ether, 25 °C, organic solvent or mixture, read-out: Solubility at 25° C.): < 1000 µg/mL
solubility ([1]; tert-butyl methyl ether, 50 °C, organic solvent or mixture, read-out: Solubility at 50° C.): < 1000 µg/mL
solubility ([1]; tetrahydrofuran, 25 °C, organic solvent or mixture, read-out: Solubility at 25° C.): 1600 µg/mL (≈ 5.01 mM)
solubility ([1]; tetrahydrofuran, 50 °C, organic solvent or mixture, read-out: Solubility at 50° C.): 2000 µg/mL (≈ 6.26 mM)
solubility ([1]; toluene, 25 °C, organic solvent or mixture, read-out: Solubility at 25° C.): < 1000 µg/mL
solubility ([1]; toluene, 50 °C, organic solvent or mixture, read-out: Solubility at 50° C.): < 1000 µg/mL
solubility ([1]; water, 25 °C, water, read-out: Solubility at 25° C.): > 50000 µg/mL
solubility ([1]; water, 50 °C, water, read-out: Solubility at 50° C.): > 50000 µg/mL
Structure (SMILES): C[C@@H](N)C1CCN(S(=O)(=O)c2cccc3cnccc23)CC1 [NRL-1049 (R), (R)-1-(1-(isoquinolin-5-ylsulfonyl)piperidin-4-yl)ethan-1-amine]

pKa average ([2]; Sample 1): 1.8
pKa ([2]; Sample 1): 1.73 and 1.81 and 1.83
pKa average ([2]; Sample 2): 2.0
pKa average ([2]; Sample 3): 1.9
pKa ([2]; Sample 3): 1.89 and 1.87 and 1.98
Structure (SMILES): CC(N)C1CCN(S(=O)(=O)c2cccc3cnccc23)CC1 (stereo not shown) [NRL-1049]
